Results reported in US7709636B2, “Pyrazole sulfonylurea compound and herbicide” (Nissan Chemical Industries, Ltd., priority 2004, dated 2010).

What was measured:
direct sown rice = assay: Herbicidal effect test by foliage treatment; type: in vivo, Oryza sativa; conditions: 1.6 g/a; foliage treatment after growth of 14 days; 3 weeks after treatment
Summary of the method: (§1)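 Greenhouse-grown seedlings (14 days, 25 to 30° C) received a foliar application of the test compound as a water-diluted wettable powder; effect assessed after 3 weeks against set criteria.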

Avena fatua = assay: Herbicidal effect test by foliage treatment; type: in vivo; conditions: 1.6 g/a; foliage treatment after growth of 14 days; 3 weeks after treatment
Summary of the method: as §1

Setaria viridis = assay: Herbicidal effect test by foliage treatment; type: in vivo; conditions: 1.6 g/a; foliage treatment after growth of 14 days; 3 weeks after treatment
Summary of the method: as §1

Abutilon avicennae = assay: Herbicidal effect test by foliage treatment; type: in vivo; conditions: 1.6 g/a; foliage treatment after growth of 14 days; 3 weeks after treatment
Summary of the method: as §1

Amaranthus retroflexus = assay: Herbicidal effect test by foliage treatment; type: in vivo; conditions: 1.6 g/a; foliage treatment after growth of 14 days; 3 weeks after treatment
Summary of the method: as §1

soybean (Glycine max) = assay: Herbicidal effect test by foliage treatment; type: in vivo; conditions: 1.6 g/a; foliage treatment after growth of 14 days; 3 weeks after treatment
Summary of the method: as §1

corn (Zea mays) = assay: Herbicidal effect test by foliage treatment; type: in vivo; conditions: 1.6 g/a; foliage treatment after growth of 14 days; 3 weeks after treatment
Summary of the method: as §1

[1] = test system: Triticum aestivum (wheat); assay: Herbicidal effect test by foliage treatment; type: in vivo; conditions: 1.6 g/a; foliage treatment after growth of 14 days; 3 weeks after treatment
Summary of the method: as §1

Echinochloa crus-galli = assay: Herbicidal effect test by foliage treatment; type: in vivo; conditions: 1.6 g/a; foliage treatment after growth of 14 days; 3 weeks after treatment
Summary of the method: as §1

Digitaria adscendes = assay: Herbicidal effect test by foliage treatment; type: in vivo; conditions: 1.6 g/a; foliage treatment after growth of 14 days; 3 weeks after treatment
Summary of the method: as §1

Chenopodium album = assay: Herbicidal effect test by foliage treatment; type: in vivo; conditions: 1.6 g/a; foliage treatment after growth of 14 days; 3 weeks after treatment
Summary of the method: as §1

Black-grass = assay: Herbicidal effect test by foliage treatment; type: in vivo; conditions: 1.6 g/a; foliage treatment after growth of 14 days; 3 weeks after treatment
Summary of the method: as §1

Stellaria media = assay: Herbicidal effect test by foliage treatment; type: in vivo; conditions: 1.6 g/a; foliage treatment after growth of 14 days; 3 weeks after treatment
Summary of the method: as §1

Ambrosia elatior = assay: Herbicidal effect test by foliage treatment; type: in vivo; conditions: 1.6 g/a; foliage treatment after growth of 14 days; 3 weeks after treatment
Summary of the method: as §1

Polygonum blumei = assay: Herbicidal effect test by foliage treatment; type: in vivo; conditions: 1.6 g/a; foliage treatment after growth of 14 days; 3 weeks after treatment
Summary of the method: as §1

Beta vulgaris (beet) = assay: Herbicidal effect test by foliage treatment; type: in vivo; conditions: 1.6 g/a; foliage treatment after growth of 14 days; 3 weeks after treatment
Summary of the method: as §1

[2] = test system: transplanted rice (Oryza sativa); assay: Crop injury test on rice in water leakage condition; type: in vivo; conditions: 0.15 g/a; water leakage 2 cm/day x 3 days; treated on third day after transplantation; 3 weeks after treatment
Experimental: Crop Injury Test on Rice in Water Leakage Condition A mixed soil of alluvial soil and diluvial soil was placed in a plastic pot perforated at the bottom of 1/10000 are, water was poured therein and mixed, and then rice seedlings at 2.5th leaf stage were transplanted. Water leakage treatment was carried out by placing the pot in a plastic vat, and controlling the amount of water in the vat kept at a condition of 2 cm/day×3 days. The pot was put in a green house at 25 to 30° C., on third day after transplantation, the wettable powder of the present invention prepared according to Formulation Example 1 was diluted with water so as to give a predetermined formulation amount, and the surface of the water was treated with the diluted wettable powder. The crop injury on rice was investigated 3 weeks after treatment with the herbicide according to the criteria indicated in Test Example 1.

[3] = test system: rice transplanted at a depth of 0 cm; assay: Herbicidal effect test in submerged condition by treatment before weed-generation (2); type: in vivo, Oryza sativa; conditions: 0.3 g/a; submerged paddy soil pot, seedlings fixed to paddy surface with roots exposed; 3 weeks after treatment
Experimental: Herbicidal Effect Test in Submerged Condition by Treatment Before Weed-Generation (2)
Paddy surface soil was placed in a plastic pot of 1/10000 are, water was poured therein and mixed. After seeds of Scirpus juncoides were sown, paddy surface soil was added by 2 cm, and submerged with water, and then seeds of Echinochloa crus-galli, Scirpus juncoides, Monochoria vaginalis, Rotala indica and Lindernia pyxidaria were sown together. In addition, rice seedlings at 2.5th leaf stage were transplanted, and fixed to the paddy surface in a state where the roots were exposed on the other side. On the day when the seeds were sown, the wettable powder of the present invention prepared according to Formulation Example 1 was diluted with water so as to give a predetermined formulation amount, and the surface of the water was treated with the diluted wettable powder. The plants were grown by putting the pot in a green house at 25 to 30° C. The herbicidal effect for each plant was investigated 3 weeks after treatment with the herbicide according to the criteria indicated in Test Example 1.

SMILES: COc1cc(OC)nc(NC(=O)NS(=O)(=O)c2c(C3=NOCC(C)O3)c(Cl)nn2C)n1 (stereo not drawn) [Compound 1, N-((4,6-dimethoxypyrimidin-2-yl)aminocarbonyl)-3-chloro-1-methyl-4-(5-methyl-5H,6H-1,4,2-dioxadin-3-yl)pyrazole-5-sulfonamide]
- herbicidal effect, d: direct sown rice (direct sown rice): 0 (Herbicidal rate 5% or less (little effect))
- herbicidal effect, F: Avena fatua (Avena fatua): 1 (Herbicidal rate 5% or more and less than 20%)
- herbicidal effect, E: Setaria viridis (Setaria viridis): 3 (Herbicidal rate 40% or more and less than 70%)
- herbicidal effect, H: Abutilon avicennae (Abutilon avicennae): 5 (Herbicidal rate 90% or more (almost complete death))
- herbicidal effect, J: Amaranthus retroflexus (Amaranthus retroflexus): 5 (Herbicidal rate 90% or more (almost complete death))
- herbicidal effect, c: soybean (Glycine max) (soybean (Glycine max)): 5 (Herbicidal rate 90% or more (almost complete death))
- herbicidal effect, b: corn (Zea mays) (corn (Zea mays)): 5 (Herbicidal rate 90% or more (almost complete death))
- herbicidal effect, e: Triticum aestivum (wheat) [1]: 2 (Herbicidal rate 20% or more and less than 40%)
- herbicidal effect, A: Echinochloa crus-galli (Echinochloa crus-galli): 5 (Herbicidal rate 90% or more (almost complete death))
- herbicidal effect, D: Digitaria adscendes (Digitaria adscendes): 5 (Herbicidal rate 90% or more (almost complete death))
- herbicidal effect, K: Chenopodium album (Chenopodium album): 4 (Herbicidal rate 70% or more and less than 90%)
- herbicidal effect, G: Black-grass (Black-grass): 4 (Herbicidal rate 70% or more and less than 90%)
- herbicidal effect, M: Stellaria media (Stellaria media): 5 (Herbicidal rate 90% or more (almost complete death))
- herbicidal effect, I: Ambrosia elatior (Ambrosia elatior): 5 (Herbicidal rate 90% or more (almost complete death))
- herbicidal effect, L: Polygonum blumei (Polygonum blumei): 5 (Herbicidal rate 90% or more (almost complete death))
- herbicidal effect, f: Beta vulgaris (beet) (Beta vulgaris (beet)): 5 (Herbicidal rate 90% or more (almost complete death))
- crop injury on rice, a: transplanted rice (Oryza sativa) [2]: 0 (Herbicidal rate 5% or less (little effect))
- herbicidal effect, g: rice transplanted at a depth of 0 cm [3]: 0 (Herbicidal rate 5% or less (little effect))
